Consider 26 molecules from patent US9708334B2, “Substituted 2,4,5,6-tetrahydropyrrolo[3,4-c]pyrazole and 4,5,6,7-tetrahydro-2H-pyrazolo[4,3-c]pyridine compounds as GlyT1 inhibitors” (DART NEUROSCIENCE (CAYMAN) LTD., priority 2014, dated 2017).

This test has as its target T1, GlyT1 (Homo sapiens, UniProt P48067).
T1 construct: expressed in transfected cells
T1 sequence (P48067 1-706): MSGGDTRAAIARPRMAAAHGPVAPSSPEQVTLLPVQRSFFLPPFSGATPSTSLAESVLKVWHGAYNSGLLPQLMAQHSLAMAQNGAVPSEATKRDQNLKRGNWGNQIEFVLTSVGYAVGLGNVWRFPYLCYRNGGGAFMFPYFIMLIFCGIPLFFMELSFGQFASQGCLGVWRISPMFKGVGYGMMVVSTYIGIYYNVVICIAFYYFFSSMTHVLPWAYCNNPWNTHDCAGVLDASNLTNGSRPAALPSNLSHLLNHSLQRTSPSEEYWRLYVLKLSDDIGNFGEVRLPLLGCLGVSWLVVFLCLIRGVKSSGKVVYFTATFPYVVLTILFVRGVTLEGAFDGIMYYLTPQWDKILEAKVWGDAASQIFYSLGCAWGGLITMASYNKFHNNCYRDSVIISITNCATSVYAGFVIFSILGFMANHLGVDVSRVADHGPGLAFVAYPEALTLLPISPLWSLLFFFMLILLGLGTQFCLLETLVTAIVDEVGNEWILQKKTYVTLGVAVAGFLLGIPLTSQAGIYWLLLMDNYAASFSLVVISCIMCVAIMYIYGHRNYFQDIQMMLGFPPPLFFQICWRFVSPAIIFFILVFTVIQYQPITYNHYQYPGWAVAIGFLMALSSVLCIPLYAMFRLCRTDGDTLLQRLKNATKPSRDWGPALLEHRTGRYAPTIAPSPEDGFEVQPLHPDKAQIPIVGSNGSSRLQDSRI
As to the kind of experiment: Glycine Transporter 1 (GlyT1) uptake assay, scintillation proximity assay of [14C]-glycine uptake. The test is classed as cell-based. The settings on record: SPA, four parameter logistic fit, read-out: GlyT1 (pIC50) (converted). The procedure, abridged: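 IC50 values derive from four-parameter logistic curves fitted to dose-response data. Uptake of [14C]-glycine measured in scintillation proximity format.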
Consider `C[C@H](Oc1ccc(C#N)cc1C(=O)N1Cc2cn(-c3ccccn3)nc2C1)C(F)(F)F` [Example 349, 3-[2-(Pyridin-2-yl)-2H 4H 5H 6H-pyrrolo[3,4-c]pyrazole-5-carbonyl]-4-{[(2 S)-1 1 1-trifluoropropan-2-yl]oxy}benzonitrile], for which the IC50 was 100 to 1000 nM.
Next, `CS(=O)(=O)c1ccc(C2CCCC2)c(C(=O)N2Cc3cn(-c4ccc(F)cc4)nc3C2)c1` [Example 350, 5-(2-Cyclopentyl-5-methanesulfonylbenzoyl)-2-(4-fluorophenyl)-2H 4H 5H 6H-pyrrolo[3,4-c]pyrazole]: below 100 nM.
The same measure for `Cc1ncc(-n2cc3c(n2)CN(C(=O)c2cc(C#N)ccc2O[C@@H](C)C(F)(F)F)C3)cc1F` [Example 351, 3-[2-(5-Fluoro-6-methylpyridin-3-yl)-2H 4H 5H 6H-pyrrolo[3,4-c]pyrazole-5-carbonyl]-4-{[(2 S)-1 1 1-trifluoropropan-2-yl]oxy}benzonitrile]: 100 to 1000 nM; for `Cc1c(F)cncc1-n1cc2c(n1)CN(C(=O)c1cc(C#N)ccc1O[C@@H](C)C(F)(F)F)C2` [Example 352, 3-[2-(5-Fluoro-4-methylpyridin-3-yl)-2H 4H 5H 6H-pyrrolo[3,4-c]pyrazole-5-carbonyl]-4-{[(2 S)-1 1 1-trifluoropropan-2-yl]oxy}benzonitrile]: 100 to 1000 nM.
Consider `Cc1cc(-n2cc3c(n2)CN(C(=O)c2cc(C#N)ccc2O[C@@H](C)C(F)(F)F)C3)ccn1` [Example 353, 3-[2-(2-Methylpyridin-4-yl)-2H 4H 5H 6H-pyrrolo[3,4-c]pyrazole-5-carbonyl]-4-{[(2S)-1 1 1-trifluoropropan-2-yl]oxy}benzonitrile], for which the IC50 was below 100 nM.
Next, `Cc1ncc(F)cc1-n1cc2c(n1)CN(C(=O)c1cc(C#N)ccc1O[C@@H](C)C(F)(F)F)C2` [Example 354, 3-[2-(5-Fluoro-2-methylpyridin-3-yl)-2H 4H 5H 6H-pyrrolo[3,4-c]pyrazole-5-carbonyl]-4-{[(2S)-1 1 1-trifluoropropan-2-yl]oxy}benzonitrile]: 1000 to 10000 nM; `Cc1cc(-n2cc3c(n2)CN(C(=O)c2cc(S(C)(=O)=O)ccc2O[C@@H](C)C(F)(F)F)C3)ccn1` [Example 356, 4-[5-(5-Methanesulfonyl-2-{[(2S)-1 1 1-trifluoropropan-2-yl]oxy}benzoyl)-2H 4H 5H 6H-pyrrolo[3,4-c]pyrazol-2-yl]-2-methylpyridine]: below 100 nM; `Cc1ccnc(-n2cc3c(n2)CN(C(=O)c2cc(S(C)(=O)=O)ccc2O[C@@H](C)C(F)(F)F)C3)c1` [Example 357, 2-[5-(5-Methanesulfonyl-2-{[(2S)-1 1 1-trifluoropropan-2-yl]oxy}benzoyl)-2H 4H 5H 6H-pyrrolo[3,4-c]pyrazol-2-yl]-4-methylpyridine]: below 100 nM.
`Cc1cc(-n2cc3c(n2)CN(C(=O)c2cc(S(C)(=O)=O)ccc2O[C@@H](C)C(F)(F)F)C3)ncc1F` [Example 359, 5-Fluoro-2-[5-(5-methanesulfonyl-2-{[(2S)-1 1 1-trifluoropropan-2-yl]oxy}benzoyl)-2H 4H 5H 6H-pyrrolo[3,4-c]pyrazol-2-yl]-4-methylpyridine]: the IC50 is below 100 nM.
Next, `Cc1cccc(-n2cc3c(n2)CN(C(=O)c2cc(S(C)(=O)=O)ccc2O[C@@H](C)C(F)(F)F)C3)n1` [Example 360, 2-[5-(5-Methanesulfonyl-2-{[(2S)-1 1 1-trifluoropropan-2-yl]oxy}benzoyl)-2H 4H 5H 6H-pyrrolo[3,4-c]pyrazol-2-yl]-6-methylpyridine]: below 100 nM; `Cc1cc(F)cnc1-n1cc2c(n1)CN(C(=O)c1cc(S(C)(=O)=O)ccc1O[C@@H](C)C(F)(F)F)C2` [Example 361, 5-Fluoro-2-[5-(5-methanesulfonyl-2-{[(2S)-1 1 1-trifluoropropan-2-yl]oxy}benzoyl)-2H 4H 5H 6H-pyrrolo[3,4-c]pyrazol-2-yl]-3-methylpyridine]: 100 to 1000 nM; `Cc1nc(-n2cc3c(n2)CN(C(=O)c2cc(S(C)(=O)=O)ccc2O[C@@H](C)C(F)(F)F)C3)ccc1F` [Example 362, 3-Fluoro-6-[5-(5-methanesulfonyl-2-{[(2S)-1 1 1-trifluoropropan-2-yl]oxy}benzoyl)-2H 4H 5H 6H-pyrrolo[3,4-c]pyrazol-2-yl]-2-methylpyridine]: below 100 nM.
The same measure for `CS(=O)(=O)c1ccc(N2CCCCC2)c(C(=O)N2Cc3cn(-c4ccc(F)cc4)nc3C2)c1` [Example 363, 1-{2-[2-(4-Fluorophenyl)-2H 4H 5H 6H-pyrrolo[3,4-c]pyrazole-5-carbonyl]-4-methanesulfonylphenyl}piperidine]: below 100 nM; for `COc1cc(-n2cc3c(n2)CN(C(=O)c2cc(C#N)ccc2O[C@@H](C)C(F)(F)F)C3)ccn1` [Example 364, 3-[2-(2-Methoxypyridin-4-yl)-2H 4H 5H 6H-pyrrolo[3,4-c]pyrazole-5-carbonyl]-4-{[(2S)-1 1 1-trifluoropropan-2-yl]oxy}benzonitrile]: below 100 nM.
Next, `COc1cc(-n2ncc3c2CN(C(=O)c2cc(C#N)ccc2O[C@@H](C)C(F)(F)F)C3)ccn1` [Example 365, 3-[1-(2-Methoxypyridin-4-yl)-1H 4H 5H 6H-pyrrolo[3,4-c]pyrazole-5-carbonyl]-4-{[(2S)-1 1 1-trifluoropropan-2-yl]oxy}benzonitrile]: 1000 to 10000 nM; `COc1cc(-n2ncc3c2CN(C(=O)c2cc(C#N)ccc2OC(C)C)C3)ccn1` [Example 366, 3-[1-(2-Methoxypyridin-4-yl)-1H 4H 5H 6H-pyrrolo[3,4-c]pyrazole-5-carbonyl]-4-(propan-2-yloxy)benzonitrile]: 1000 to 10000 nM.
With `CCc1cc(-n2cc3c(n2)CN(C(=O)c2cc(C#N)ccc2O[C@@H](C)C(F)(F)F)C3)ccn1` [Example 367, 3-[2-(2-Ethylpyridin-4-yl)-2H 4H 5H 6H-pyrrolo[3,4-c]pyrazole-5-carbonyl]-4-{[(2S)-1 1 1-trifluoropropan-2-yl]oxy}benzonitrile], the IC50 was below 100 nM.
The same measure for `CCc1cc(-n2cc3c(n2)CN(C(=O)c2cc(C#N)ccc2OC(C)C)C3)ccn1` [Example 368, 3-[2-(2-Ethylpyridin-4-yl)-2H 4H 5H 6H-pyrrolo[3,4-c]pyrazole-5-carbonyl]-4-(propan-2-yloxy)benzonitrile]: below 100 nM; for `COc1cc(-n2cc3c(n2)CN(C(=O)c2cc(C#N)ccc2OC(C)C)C3)ccn1` [Example 369, 3-[2-(2-Methoxypyridin-4-yl)-2H 4H 5H 6H-pyrrolo[3,4-c]pyrazole-5-carbonyl]-4-(propan-2-yloxy)benzonitrile]: below 100 nM.
On to `CCOc1cc(-n2cc3c(n2)CN(C(=O)c2cc(C#N)ccc2OC(C)C)C3)ccn1` [Example 370, 3-[2-(2-Ethoxypyridin-4-yl)-2H 4H 5H 6H-pyrrolo[3,4-c]pyrazole-5-carbonyl]-4-(propan-2-yloxy)benzonitrile], for which the IC50 was 100 to 1000 nM.
The same measure for `CCOc1cc(-n2cc3c(n2)CN(C(=O)c2cc(C#N)ccc2O[C@@H](C)C(F)(F)F)C3)ccn1` [Example 371, 3-[2-(2-Ethoxypyridin-4-yl)-2H 4H 5H 6H-pyrrolo[3,4-c]pyrazole-5-carbonyl]-4-{[(2S)-1 1 1-trifluoropropan-2-yl]oxy}benzonitrile]: 100 to 1000 nM; for `CC(C)Oc1cc(-n2cc3c(n2)CN(C(=O)c2cc(C#N)ccc2OC(C)C)C3)ccn1` [Example 373, 4-(Propan-2-yloxy)-3-{2-[2-(propan-2-yloxy)pyridin-4-yl]-2H 4H 5H 6H-pyrrolo[3,4-c]pyrazole-5-carbonyl}benzonitrile]: 100 to 1000 nM.
Next, `CC(C)Oc1ccc(C#N)cc1C(=O)N1Cc2cn(-c3ccnc(C(C)C)c3)nc2C1` [Example 374, 3-{2-[2-(Propan-2-yl)pyridin-4-yl]-2H 4H 5H 6H-pyrrolo[3,4-c]pyrazole-5-carbonyl}-4-(propan-2-yloxy)benzonitrile]: below 100 nM; `CC(C)c1cc(-n2cc3c(n2)CN(C(=O)c2cc(C#N)ccc2O[C@@H](C)C(F)(F)F)C3)ccn1` [Example 375, 3-{2-[2-(Propan-2-yl)pyridin-4-yl]-2H 4H 5H 6H-pyrrolo[3,4-c]pyrazole-5-carbonyl}-4-{[(2S)-1 1 1-trifluoropropan-2-yl]oxy}benzonitrile]: below 100 nM; `COc1c(C#N)ccc(C2(F)CCCC2)c1C(=O)N1Cc2cn(-c3ccnc(C)c3)nc2C1` [Example 376, 4-(1-Fluorocyclopentyl)-2-methoxy-3-[2-(2-methylpyridin-4-yl)-2H 4H 5H 6H-pyrrolo[3,4-c]pyrazole-5-carbonyl]benzonitrile]: below 100 nM.
As to `COc1c(C#N)ccc(C2(F)CCCC2)c1C(=O)N1Cc2cn(-c3cncc(F)c3)nc2C1` [Example 377, 4-(1-Fluorocyclopentyl)-3-[2-(5-fluoropyridin-3-yl)-2H 4H 5H 6H-pyrrolo[3,4-c]pyrazole-5-carbonyl]-2-methoxybenzonitrile], the IC50 is below 100 nM.
